The values that follow come from ChEMBL document CHEMBL1201862, “PubChem BioAssay data set” (2004).

Active and inactive are the calls of the source.

In experiment [1] the target is T1, E3 ubiquitin-protein ligase XIAP (Homo sapiens, UniProt P98170). The experiment can be described thus: Counter Screen using XIAP-Bir3 for Chemical Antagonists of Bir1/2 domains of IAP-family anti-apoptotic proteins. [Related pubchem assays (depositor defined):AID1018, AID1449, AID1514, AID1638, AID1749, AID1750, AID488957, AID488963]. (The purpose of a counterscreen is to sort out artefacts and off-target activity.)

Experiment [2] concerns the target T1, E3 ubiquitin-protein ligase XIAP. The experiment can be described thus: small molecules displacing peptide from XIAP – biochemical, IAP family, fluorescence polarization (AID 1018). Type of experiment: functional. In general terms: Polarisation of emitted light reports the rotation of a fluorescent probe.
Experiment [3] concerns the target T2, Type-1 angiotensin II receptor (Homo sapiens, UniProt P30556).
T2 sequence (P30556 whole entry): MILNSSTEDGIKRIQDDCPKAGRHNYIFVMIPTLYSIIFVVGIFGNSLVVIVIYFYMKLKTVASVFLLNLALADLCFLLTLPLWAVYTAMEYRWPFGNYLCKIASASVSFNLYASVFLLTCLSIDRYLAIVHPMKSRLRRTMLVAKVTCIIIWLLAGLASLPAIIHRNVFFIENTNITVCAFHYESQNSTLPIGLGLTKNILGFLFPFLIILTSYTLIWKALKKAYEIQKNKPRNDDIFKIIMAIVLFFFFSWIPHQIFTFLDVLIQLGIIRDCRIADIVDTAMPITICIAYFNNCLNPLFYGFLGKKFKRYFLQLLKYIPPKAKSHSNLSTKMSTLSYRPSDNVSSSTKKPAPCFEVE
Put plainly: agonist activity at AGTR1 – cell-based, uHTS hits, selectivity assay for APJ receptor agonist project, dose response (AID 488865).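 Note: beta-arrestin recruitment to AT1 measured by enzyme fragment complementation luminescence.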 Type of experiment: functional.

Experiment [4] deals with Intestinal-type alkaline phosphatase (Mus musculus, UniProt P24822). The experiment can be described thus: PubChem AID 488875. Type of experiment: functional.
Experiment [5] concerns the target T3, Intestinal-type alkaline phosphatase (Homo sapiens, UniProt P09923). The experiment can be described thus: human intestinal alkaline phosphatase activators, dose response, biochemical, luminescence, uHTS hits (AID 463120). Type of experiment: functional.
The target of experiment [6] is Alkaline phosphatase, placental type (Homo sapiens, UniProt P05187). Put plainly: human placental alkaline phosphatase inhibition – biochemical, luminescence, confirmation (AID 1512). Type of experiment: functional.
Experiment [7] has as its target T3, Intestinal-type alkaline phosphatase. The experiment can be described thus: activation of human intestinal alkaline phosphatase – biochemical, luminescent, uHTS hits, set 2, dose response (AID 488817).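 Note: potency of activators that raise enzyme activity.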 Type of experiment: functional.
The target in experiment [8] is T4, G-protein coupled receptor 35 (Homo sapiens, UniProt Q9HC97). The experiment can be described thus: SAR analysis of Agonists of the GPR35 Receptor using an Image-Based Assay - Set 4. [Related pubchem assays (depositor defined):AID2013, AID2026]. Type of experiment: functional.
Experiment [9] deals with T5, Cannabinoid receptor 1 (Homo sapiens, UniProt P21554). The experiment can be described thus: SAR analysis of agonists of the Cannabinoid Receptor 1 using an Image-Based Assay - Set 4. [Related pubchem assays (depositor defined):AID2013, AID2026]. Type of experiment: functional.
The target in experiment [10] is T4, G-protein coupled receptor 35. The experiment can be described thus: SAR analysis of Antagonists of the GPR35 Receptor using an Image-Based Assay - Set 6. [Related pubchem assays (depositor defined):AID2013, AID2026]. Type of experiment: functional.
For experiment [11], the target named is T5, Cannabinoid receptor 1. The experiment can be described thus: SAR analysis of antagonists of the Cannabinoid Receptor 1 using an Image-Based Assay - Set 4. [Related pubchem assays (depositor defined):AID2013, AID2026]. Type of experiment: functional.
The target of experiment [12] is G-protein coupled receptor 55 (Homo sapiens, UniProt Q9Y2T6). Put plainly: SAR Analysis of Selective Antagonists of GPR55 using an Image-Based Assay - Set 4. [Related pubchem assays (depositor defined):AID2013, AID2026]. Type of experiment: functional.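 Note: antagonism of response to 5 µM lysophosphatidylinositol agonist.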
Experiment [13] has as its target T6, Cannabinoid receptor 2 (Homo sapiens, UniProt P34972). The experiment can be described thus: SAR analysis of antagonists of the Cannabinoid Receptor 2 using an Image-Based Assay - Set 3. [Related pubchem assays (depositor defined):AID2013, AID2026]. Type of experiment: functional.
Experiment [14] has as its target T6, Cannabinoid receptor 2. The experiment can be described thus: SAR analysis of agonists of the Cannabinoid Receptor 2 using an Image-Based Assay - Set 3. [Related pubchem assays (depositor defined):AID2013, AID2026]. Type of experiment: functional.

T5 sequence (P21554 whole entry): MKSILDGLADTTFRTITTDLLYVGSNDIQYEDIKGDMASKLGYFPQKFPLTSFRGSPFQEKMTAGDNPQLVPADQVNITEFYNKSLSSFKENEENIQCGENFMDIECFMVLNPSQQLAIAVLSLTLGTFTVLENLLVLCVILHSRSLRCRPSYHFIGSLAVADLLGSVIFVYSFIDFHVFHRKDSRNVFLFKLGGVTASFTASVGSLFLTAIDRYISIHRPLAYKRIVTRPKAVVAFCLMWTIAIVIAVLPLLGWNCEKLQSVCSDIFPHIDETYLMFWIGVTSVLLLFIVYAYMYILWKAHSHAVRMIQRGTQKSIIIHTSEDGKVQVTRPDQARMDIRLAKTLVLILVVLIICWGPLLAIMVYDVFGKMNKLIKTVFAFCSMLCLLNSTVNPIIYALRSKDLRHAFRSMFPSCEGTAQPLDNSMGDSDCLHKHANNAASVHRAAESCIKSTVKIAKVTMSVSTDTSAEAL
T3 sequence (P09923 whole entry): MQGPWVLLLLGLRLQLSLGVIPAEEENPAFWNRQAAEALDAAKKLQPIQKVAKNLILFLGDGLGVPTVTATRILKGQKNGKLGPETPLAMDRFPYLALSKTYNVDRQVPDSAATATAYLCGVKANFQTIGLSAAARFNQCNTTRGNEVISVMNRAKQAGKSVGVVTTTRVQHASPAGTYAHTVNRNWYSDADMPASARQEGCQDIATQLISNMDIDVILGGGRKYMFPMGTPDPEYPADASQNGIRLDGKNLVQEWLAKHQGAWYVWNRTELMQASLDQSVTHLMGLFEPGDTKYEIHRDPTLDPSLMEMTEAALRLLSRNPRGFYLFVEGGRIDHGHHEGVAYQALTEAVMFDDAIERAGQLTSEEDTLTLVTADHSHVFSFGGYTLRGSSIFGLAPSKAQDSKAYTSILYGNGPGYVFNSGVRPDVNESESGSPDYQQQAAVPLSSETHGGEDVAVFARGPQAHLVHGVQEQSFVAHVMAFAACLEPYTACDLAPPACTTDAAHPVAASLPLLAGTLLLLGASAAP
T6 sequence (P34972 whole entry): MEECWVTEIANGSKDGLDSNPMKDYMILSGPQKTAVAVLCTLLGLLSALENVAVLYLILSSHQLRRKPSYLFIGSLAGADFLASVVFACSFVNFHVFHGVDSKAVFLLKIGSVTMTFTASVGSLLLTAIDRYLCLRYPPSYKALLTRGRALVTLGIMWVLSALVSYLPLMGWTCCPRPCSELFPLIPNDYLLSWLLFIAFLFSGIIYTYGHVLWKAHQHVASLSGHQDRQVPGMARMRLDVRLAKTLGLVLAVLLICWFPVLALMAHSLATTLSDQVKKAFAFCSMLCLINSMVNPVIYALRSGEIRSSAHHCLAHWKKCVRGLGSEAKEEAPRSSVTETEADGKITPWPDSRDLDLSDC
T4 sequence (Q9HC97 whole entry): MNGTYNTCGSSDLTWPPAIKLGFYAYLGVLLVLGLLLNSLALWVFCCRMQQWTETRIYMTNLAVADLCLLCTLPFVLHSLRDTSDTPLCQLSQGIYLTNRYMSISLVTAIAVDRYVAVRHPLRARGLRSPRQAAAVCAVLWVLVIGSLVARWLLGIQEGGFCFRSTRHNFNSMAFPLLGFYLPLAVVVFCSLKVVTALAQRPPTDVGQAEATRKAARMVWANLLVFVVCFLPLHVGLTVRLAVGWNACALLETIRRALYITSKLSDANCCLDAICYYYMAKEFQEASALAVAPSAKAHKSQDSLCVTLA
T1 sequence (P98170 whole entry): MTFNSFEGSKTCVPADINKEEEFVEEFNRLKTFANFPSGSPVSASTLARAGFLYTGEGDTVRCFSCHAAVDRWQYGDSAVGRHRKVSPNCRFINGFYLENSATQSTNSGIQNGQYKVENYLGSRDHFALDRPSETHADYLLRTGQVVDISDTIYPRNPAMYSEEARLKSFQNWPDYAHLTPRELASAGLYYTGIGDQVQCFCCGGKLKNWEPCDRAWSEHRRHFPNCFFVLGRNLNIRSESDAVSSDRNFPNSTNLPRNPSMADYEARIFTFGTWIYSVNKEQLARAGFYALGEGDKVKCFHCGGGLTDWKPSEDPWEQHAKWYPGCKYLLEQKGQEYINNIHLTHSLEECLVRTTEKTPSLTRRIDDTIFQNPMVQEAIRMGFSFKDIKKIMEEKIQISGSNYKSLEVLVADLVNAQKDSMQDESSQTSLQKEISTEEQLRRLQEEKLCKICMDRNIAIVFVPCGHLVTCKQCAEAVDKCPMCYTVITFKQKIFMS
Chain of Alkaline phosphatase, placental type (P05187 whole entry): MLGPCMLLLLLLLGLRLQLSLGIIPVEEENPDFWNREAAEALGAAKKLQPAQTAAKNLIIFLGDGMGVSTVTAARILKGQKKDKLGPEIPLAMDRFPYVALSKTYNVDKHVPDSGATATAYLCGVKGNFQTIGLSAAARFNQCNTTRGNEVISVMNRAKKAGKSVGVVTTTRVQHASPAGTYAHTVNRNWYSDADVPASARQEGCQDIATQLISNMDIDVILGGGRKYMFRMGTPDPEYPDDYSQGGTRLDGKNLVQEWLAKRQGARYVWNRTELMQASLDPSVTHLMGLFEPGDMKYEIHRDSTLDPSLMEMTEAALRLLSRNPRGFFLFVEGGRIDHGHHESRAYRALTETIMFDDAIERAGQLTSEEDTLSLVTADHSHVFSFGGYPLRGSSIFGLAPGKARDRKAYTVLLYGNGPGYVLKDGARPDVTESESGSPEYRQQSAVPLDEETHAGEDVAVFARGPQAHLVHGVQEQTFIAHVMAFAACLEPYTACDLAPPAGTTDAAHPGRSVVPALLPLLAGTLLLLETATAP
Chain of Intestinal-type alkaline phosphatase (Mus musculus, UniProt P24822) (P24822 whole entry): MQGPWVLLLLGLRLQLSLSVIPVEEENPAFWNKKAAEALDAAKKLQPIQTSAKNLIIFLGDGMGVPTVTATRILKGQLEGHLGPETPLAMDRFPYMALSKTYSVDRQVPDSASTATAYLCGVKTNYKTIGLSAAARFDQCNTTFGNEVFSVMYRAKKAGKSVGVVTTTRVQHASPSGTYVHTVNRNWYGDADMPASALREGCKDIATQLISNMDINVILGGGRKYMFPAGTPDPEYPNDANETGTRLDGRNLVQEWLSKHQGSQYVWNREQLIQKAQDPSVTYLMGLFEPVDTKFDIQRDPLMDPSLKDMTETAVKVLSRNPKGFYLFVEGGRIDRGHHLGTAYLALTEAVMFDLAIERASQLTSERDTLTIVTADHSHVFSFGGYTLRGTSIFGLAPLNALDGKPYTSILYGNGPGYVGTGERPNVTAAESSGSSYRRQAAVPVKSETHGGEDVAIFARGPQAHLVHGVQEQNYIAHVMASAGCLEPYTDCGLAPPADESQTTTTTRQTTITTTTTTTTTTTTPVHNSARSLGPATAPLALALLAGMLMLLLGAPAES
Chain of G-protein coupled receptor 55 (Q9Y2T6 whole entry): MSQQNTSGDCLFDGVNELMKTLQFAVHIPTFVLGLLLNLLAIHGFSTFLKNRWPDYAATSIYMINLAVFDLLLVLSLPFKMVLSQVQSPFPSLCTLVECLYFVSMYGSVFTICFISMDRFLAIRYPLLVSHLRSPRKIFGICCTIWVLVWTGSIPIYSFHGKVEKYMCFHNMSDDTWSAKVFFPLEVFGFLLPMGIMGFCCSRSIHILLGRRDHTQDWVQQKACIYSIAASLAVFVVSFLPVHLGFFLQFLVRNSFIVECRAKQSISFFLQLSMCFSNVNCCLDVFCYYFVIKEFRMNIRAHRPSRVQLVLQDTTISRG

Regarding `CC(C)C(NC(=O)CN1C(=O)c2ccccc2S1(=O)=O)C(C)C`, the IC50 was > 100 µM (inactive) in experiment [1] and > 100 µM (not active) in [2].

Take `CCN1C(c2ccccc2)=C(c2ccccc2)S/C1=C\C=C1/SC(=S)N(C)C1=O`: the EC50 in experiment [3] is 7.44 µM (active).

In the case of `Cc1cc(C)cc(OCC(=O)NNC(=O)c2cc(C)n[nH]2)c1`, the EC50 is > 100 µM (inactive) in experiment [4], 12.7 µM (active) in [5] and 16.1 µM (active) in [7]. For the same compound, the IC50 in experiment [6] is > 100 µM (inactive).

`O=C(N1CCC(n2nc(-c3ccccc3)oc2=O)CC1)C1(c2ccccc2)CCCC1`: the EC50 in [8], in [9] and in experiment [14] was > 32 µM (inactive) throughout. Further, the IC50 in experiment [10] was > 32 µM (inactive); in experiment [11] it was 1.98 µM (active); in experiment [12], 2.7 µM (active); in experiment [13] it was 14 µM (inactive).

A word on the IC50: it is the point on the concentration scale where inhibition reaches its midpoint. Usually EC50 stands for the concentration that produces a half-maximal response.
